From US10968225B2, “Compounds and compositions for the treatment of cystic fibrosis” (Fondazione Istituto Italiano Di Tecnologia, priority 2017, dated 2021) come the findings set out here.

Bounds are passed on as bounds.

The target of the test is T1, mutant CFTR (Homo sapiens, UniProt P13569, DEL508-508).
T1 construct: expressed in transfected cells
T1 sequence (P13569 with tags, fused parts or gaps DEL508-508): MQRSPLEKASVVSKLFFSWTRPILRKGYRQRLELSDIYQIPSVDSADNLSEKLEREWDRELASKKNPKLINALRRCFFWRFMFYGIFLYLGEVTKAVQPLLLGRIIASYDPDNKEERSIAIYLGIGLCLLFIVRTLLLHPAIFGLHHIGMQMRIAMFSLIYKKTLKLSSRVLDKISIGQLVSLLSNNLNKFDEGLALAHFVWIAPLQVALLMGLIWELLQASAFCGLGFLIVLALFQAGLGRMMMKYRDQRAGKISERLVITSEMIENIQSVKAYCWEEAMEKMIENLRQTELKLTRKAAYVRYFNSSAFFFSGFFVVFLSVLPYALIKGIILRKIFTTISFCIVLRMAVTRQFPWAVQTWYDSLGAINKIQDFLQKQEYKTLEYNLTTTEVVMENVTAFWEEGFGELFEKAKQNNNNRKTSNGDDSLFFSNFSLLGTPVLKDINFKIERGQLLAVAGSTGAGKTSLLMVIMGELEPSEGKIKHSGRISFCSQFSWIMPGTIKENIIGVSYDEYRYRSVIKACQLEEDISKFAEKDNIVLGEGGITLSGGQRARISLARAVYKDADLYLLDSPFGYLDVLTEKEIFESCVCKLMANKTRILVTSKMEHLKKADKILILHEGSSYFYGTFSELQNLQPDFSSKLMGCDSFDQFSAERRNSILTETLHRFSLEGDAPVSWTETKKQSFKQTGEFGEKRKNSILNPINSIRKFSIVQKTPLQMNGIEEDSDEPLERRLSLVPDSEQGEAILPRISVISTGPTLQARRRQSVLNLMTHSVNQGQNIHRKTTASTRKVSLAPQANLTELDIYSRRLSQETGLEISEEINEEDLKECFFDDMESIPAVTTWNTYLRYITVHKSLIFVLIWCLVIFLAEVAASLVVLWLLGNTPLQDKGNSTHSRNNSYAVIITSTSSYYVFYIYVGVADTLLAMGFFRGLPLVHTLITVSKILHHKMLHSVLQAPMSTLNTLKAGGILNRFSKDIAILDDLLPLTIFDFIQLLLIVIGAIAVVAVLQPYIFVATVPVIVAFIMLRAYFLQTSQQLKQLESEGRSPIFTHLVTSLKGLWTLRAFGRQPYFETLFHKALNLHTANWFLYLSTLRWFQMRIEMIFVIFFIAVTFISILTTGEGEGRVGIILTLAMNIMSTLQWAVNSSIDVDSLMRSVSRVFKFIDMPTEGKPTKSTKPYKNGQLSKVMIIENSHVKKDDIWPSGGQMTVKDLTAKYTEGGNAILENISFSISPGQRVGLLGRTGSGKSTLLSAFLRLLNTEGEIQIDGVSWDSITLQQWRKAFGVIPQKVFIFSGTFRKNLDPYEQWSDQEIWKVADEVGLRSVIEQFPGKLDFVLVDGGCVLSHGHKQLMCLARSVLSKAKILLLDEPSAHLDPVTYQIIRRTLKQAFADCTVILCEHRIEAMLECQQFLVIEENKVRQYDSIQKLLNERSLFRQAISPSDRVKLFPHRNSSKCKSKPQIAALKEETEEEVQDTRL
Kind of test: Fluorescence (HS-YFP) assay for CFTR activity, corrector assay. Format: cell-based. The note with it: CFBE41o- and FRT cells with stable expression of mutant CFTR, read-out: activity (EC50).
For orientation: EC50 means the concentration needed to bring the measured effect to its halfway point. In the case of `CN(C(=O)c1cccc(-n2nc(C(F)(F)F)c3c2C(Oc2cc(C(=O)O)ccn2)CCC3)c1)c1ccc2c(c1)OC(F)(F)O2` (single isomer, unassigned) [Compound 196, (S) or (R)-2-[[1-[3-[(2,2-Difluoro-1,3-benzodioxol-5-yl)-methyl-carbamoyl]phenyl]-3-(trifluoromethyl)-4,5,6,7-tetrahydroindazol-7-yl]oxy]pyridine-4-carboxylic acid], the EC50 is less than 1 µM.
The same measure for `CN(C(=O)c1cccc(-n2nc(C(F)(F)F)c3c2C(Oc2cc(C(=O)O)ccn2)CCC3)c1)c1ccc2c(c1)OC(F)(F)O2` (single isomer, unassigned) [Compound 198, (R) or (S)-2-[[1-[3-[(2,2-Difluoro-1,3-benzodioxol-5-yl)-methyl-carbamoyl]phenyl]-3-(trifluoromethyl)-4,5,6,7-tetrahydroindazol-7-yl]oxy]pyridine-4-carboxylic acid]: less than 1 µM.
The same measure for `CN(C(=O)c1cccc(-n2nc(C(F)(F)F)c3c2C(Oc2ccc(C(=O)O)cc2)COC3)c1)c1ccc2c(c1)OC(F)(F)O2` (single isomer, unassigned) [Compound 205, (R) or (S)-4-[[1-[3-[(2,2-Difluoro-1,3-benzodioxol-5-yl)-methyl-carbamoyl]phenyl]-3-(trifluoromethyl)-6,7-dihydro-4H-pyrano[4,3-c]pyrazol-7-yl]oxy]benzoic acid]: less than 1 µM; for `CN(C(=O)c1cccc(-n2nc(C(F)(F)F)c3c2C(Oc2ccc(C(=O)O)cc2)COC3)c1)c1ccc2c(c1)OC(F)(F)O2` (single isomer, unassigned) [Compound 206, (S) or (R)-4-[[1-[3-[(2,2-Difluoro-1,3-benzodioxol-5-yl)-methyl-carbamoyl]phenyl]-3-(trifluoromethyl)-6,7-dihydro-4H-pyrano[4,3-c]pyrazol-7-yl]oxy]benzoic acid]: less than 1 µM.
As for `Cc1cc2ncc(N(C)C(=O)c3cccc(-n4nc(C(F)(F)F)c5c4[C@H](Oc4ccc(C(=O)O)cc4)CCC5)c3)cn2n1` (single isomer, unassigned) [Compound 217, (S) or (R)-4-[[1-[3-[Methyl-(2-methylpyrazolo[1,5-a]pyrimidin-6-yl)carbamoyl]phenyl]-3-(trifluoromethyl)-4,5,6,7-tetrahydroindazol-7-yl]oxy]benzoic acid], the figure is less than 1 µM; as for `Cc1cc2ncc(N(C)C(=O)c3cccc(-n4nc(C(F)(F)F)c5c4[C@@H](Oc4ccc(C(=O)O)cc4)CCC5)c3)cn2n1` (single isomer, unassigned) [Compound 218, (R) or (S)-4-[[1-[3-[Methyl-(2-methylpyrazolo[1,5-a]pyrimidin-6-yl)carbamoyl]phenyl]-3-(trifluoromethyl)-4,5,6,7-tetrahydroindazol-7-yl]oxy]benzoic acid], 1 to 2 µM; as for `CN(C(=O)c1cccc(-n2nc(C(F)(F)F)c3c2C(Oc2cncc(C(=O)O)c2)CCC3)c1)c1ccc2c(c1)OC(F)(F)O2` (single isomer, unassigned) [Compound 271, (S) or (R)-5-[[1-[3-[(2,2-Difluoro-1,3-benzodioxol-5-yl)-methyl-carbamoyl]phenyl]-3-(trifluoromethyl)-4,5,6,7-tetrahydroindazol-7-yl]oxy]pyridine-3-carboxylic acid], less than 1 µM.
In the case of `CN(C(=O)c1cccc(-n2nc(C(F)(F)F)c3c2C(Oc2cncc(C(=O)O)c2)CCC3)c1)c1ccc2c(c1)OC(F)(F)O2` (single isomer, unassigned) [Compound 272, (R) or (S)-5-[[1-[3-[(2,2-Difluoro-1,3-benzodioxol-5-yl)-methyl-carbamoyl]phenyl]-3-(trifluoromethyl)-4,5,6,7-tetrahydroindazol-7-yl]oxy]pyridine-3-carboxylic acid], the EC50 was in the range of 1 to 2 µM.
The same measure for `CN(C(=O)c1cccc(-n2nc(C(F)(F)F)c3c2C(Oc2ccc(C(=O)O)cc2)CCC3)c1)c1cnc2c(c1)OCC2` (single isomer, unassigned) [Compound 275, (S) or (R)-4-[[1-[3-[2,3-Dihydrofuro[3,2-b]pyridin-6-yl(methyl)carbamoyl]phenyl]-3-(trifluoromethyl)-4,5,6,7-tetrahydroindazol-7-yl]oxy]benzoic acid]: less than 1 µM.
As for `CN(C(=O)c1cccc(-n2nc(C(F)(F)F)c3c2C(Oc2ccc(C(=O)O)cc2)CCC3)c1)c1cnc2c(c1)OCC2` (single isomer, unassigned) [Compound 276, (R) or (S)-4-[[1-[3-[2,3-Dihydrofuro[3,2-b]pyridin-6-yl(methyl)carbamoyl]phenyl]-3-(trifluoromethyl)-4,5,6,7-tetrahydroindazol-7-yl]oxy]benzoic acid], the figure is 1 to 2 µM; as for `CN(C(=O)c1cccc(-n2nc(C(F)(F)F)c3c2C(Oc2ccc(C(=O)O)cn2)COC3)c1)c1ccc2c(c1)OC(F)(F)O2` (single isomer, unassigned) [Compound 277, (S) or (R)-6-[[1-[3-[(2,2-difluoro-1,3-benzodioxol-5-yl)-methyl-carbamoyl]phenyl]-3-(trifluoromethyl)-6,7-dihydro-4H-pyrano[4,3-c]pyrazol-7-yl]oxy]pyridine-3-carboxylic acid], less than 1 µM.
The same measure for `CN(C(=O)c1cccc(-n2nc(C(F)(F)F)c3c2C(Oc2ccc(C(=O)O)cn2)COC3)c1)c1ccc2c(c1)OC(F)(F)O2` (single isomer, unassigned) [Compound 278, (R) or (S)-6-[[1-[3-[(2,2-difluoro-1,3-benzodioxol-5-yl)-methyl-carbamoyl]phenyl]-3-(trifluoromethyl)-6,7-dihydro-4H-pyrano[4,3-c]pyrazol-7-yl]oxy]pyridine-3-carboxylic acid]: less than 1 µM.
With `CN(C(=O)c1cccc(-n2nc(C(F)(F)F)c3c2C(Oc2ccc(C(=O)O)cc2)CCC3)c1)c1ccc2c(c1)OCC2` (single isomer, unassigned) [Compound 279, (S) or (R)-4-[[1-[3-[2,3-dihydrobenzofuran-6-yl(methyl)carbamoyl]phenyl]-3-(trifluoromethyl)-4,5,6,7-tetrahydroindazol-7-yl]oxy]benzoic acid], the EC50 is less than 1 µM.
As for `CN(C(=O)c1cccc(-n2nc(C(F)(F)F)c3c2C(Oc2ccc(C(=O)O)cc2)CCC3)c1)c1ccc2c(c1)OCC2` (single isomer, unassigned) [Compound 280, (R) or (S)-4-[[(1-[3-[2,3-dihydrobenzofuran-6-yl(methyl)carbamoyl]phenyl]-3-(trifluoromethyl)-4,5,6,7-tetrahydroindazol-7-yl]oxy]benzoic acid], the figure is less than 1 µM.
Regarding `CN(C(=O)c1cccc(-n2nc(C(F)(F)F)c3c2C(Oc2ccc(C(=O)O)cc2)COC3)c1)c1ccc2c(c1)OCC2` (single isomer, unassigned) [Compound 282, (R) or (S)-4-[[1-[3-[2,3-dihydrobenzofuran-6-yl(methyl)carbamoyl]phenyl]-3-(trifluoromethyl)-6,7-dihydro-4H-pyrano[4,3-c]pyrazol-7-yl]oxy]benzoic acid], the EC50 is less than 1 µM.
The same measure for `CN(C(=O)c1cccc(-n2nc(C(F)(F)F)c3c2C(Oc2ccc(C(=O)O)cc2)COC3)c1)c1ccc2c(c1)OCC2` (single isomer, unassigned) [Compound 283, (S) or (R)-4-[[1-[3-[2,3-dihydrobenzofuran-6-yl(methyl)carbamoyl]phenyl]-3-(trifluoromethyl)-6,7-dihydro-4H-pyrano[4,3-c]pyrazol-7-yl]oxy]benzoic acid]: 1 to 2 µM.
